ChEMBL document CHEMBL4190370, “Emerging New Targets for the Treatment of Resistant Fungal Infections” (J Med Chem, 2018)
≈ marks a conversion by molar mass, not a printed value.

Assays:
Candida albicans [1] = assay: Inhibition of Cch1 in Candida albicans isolate 10 assessed as potentiation of fluconazole-induced antifungal activity by measuring fractional inhibitory concentration index after 24 hrs by checkerboard assay
Candida albicans [2] = assay: Inhibition of Cch1 in Candida albicans isolate 16 assessed as potentiation of fluconazole-induced antifungal activity by measuring fractional inhibitory concentration index after 24 hrs by checkerboard assay
Candida albicans [3] = assay: Antifungal activity against Candida albicans; assay type: functional
Candida albicans [4] = assay: Antifungal activity against Candida albicans ATCC 10231 after 24 hrs by CLSI protocol based method; assay type: functional; conditions: ATCC 10231, 24 h
Aspergillus fumigatus [5] = assay: Antifungal activity against Aspergillus fumigatus IFM 40808 after 48 hrs by broth-microdilution method; assay type: functional; conditions: IFM 40808, 48 h
[6] = Inhibition of Aspergillus fumigatus KU80UpyrG- NMT using [3H]-MCoA and CAP5.5 as substrate after 20 mins by SPA assay
Candida albicans [7] = assay: Antifungal activity against fluconazole-susceptable Candida albicans isolate 1 after 24 hrs by microdilution method; assay type: functional; conditions: isolate 1, 24 h
Candida albicans [8] = assay: Antifungal activity against fluconazole-susceptable Candida albicans isolate 2 after 24 hrs by microdilution method; assay type: functional; conditions: isolate 2, 24 h
Candida albicans [9] = assay: Antifungal activity against fluconazole-susceptable Candida albicans isolate 3 after 24 hrs by microdilution method; assay type: functional; conditions: isolate 3, 24 h
Candida albicans [10] = assay: Antifungal activity against fluconazole-susceptable Candida albicans isolate 4 after 24 hrs by microdilution method; assay type: functional; conditions: isolate 4, 24 h
Candida albicans [11] = assay: Antifungal activity against fluconazole-susceptable Candida albicans isolate 5 after 24 hrs by microdilution method; assay type: functional; conditions: isolate 5, 24 h
Candida albicans [12] = assay: Antifungal activity against fluconazole-susceptable Candida albicans isolate 6 after 24 hrs by microdilution method; assay type: functional; conditions: isolate 6, 24 h
Candida albicans [13] = assay: Antifungal activity against fluconazole-susceptable Candida albicans isolate 7 after 24 hrs by microdilution method; assay type: functional; conditions: isolate 7, 24 h
Candida albicans [14] = assay: Antifungal activity against fluconazole-susceptable Candida albicans isolate 8 after 24 hrs by microdilution method; assay type: functional; conditions: isolate 8, 24 h
Candida albicans [15] = assay: Antifungal activity against fluconazole-susceptable Candida albicans isolate 9 after 24 hrs by microdilution method; assay type: functional; conditions: isolate 9, 24 h
Candida albicans [16] = assay: Antifungal activity against fluconazole-susceptable Candida albicans isolate 10 after 24 hrs by microdilution method; assay type: functional; conditions: isolate 10, 24 h
Candida albicans [17] = assay: Antifungal activity against fluconazole-susceptable Candida albicans isolate 11 after 24 hrs by microdilution method; assay type: functional; conditions: isolate 11, 24 h
Candida albicans [18] = assay: Antifungal activity against fluconazole-susceptable Candida albicans isolate 12 after 24 hrs by microdilution method; assay type: functional; conditions: isolate 12, 24 h
Candida albicans [19] = assay: Antifungal activity against fluconazole-susceptable Candida albicans isolate 13 after 24 hrs by microdilution method; assay type: functional; conditions: isolate 13, 24 h
Candida albicans [20] = assay: Antifungal activity against fluconazole-susceptable Candida albicans isolate 14 after 24 hrs by microdilution method; assay type: functional; conditions: isolate 14, 24 h
Candida albicans [21] = assay: Antifungal activity against fluconazole-susceptable Candida albicans isolate 15 after 24 hrs by microdilution method; assay type: functional; conditions: isolate 15, 24 h
Candida albicans [22] = assay: Antifungal activity against fluconazole-resistant Candida albicans isolate 16 after 24 hrs by microdilution method; assay type: functional; conditions: isolate 16, 24 h
Candida albicans [23] = assay: Antifungal activity against fluconazole-resistant Candida albicans isolate 17 after 24 hrs by microdilution method; assay type: functional; conditions: isolate 17, 24 h
Cryptococcus neoformans [24] = assay: Antifungal activity against Cryptococcus neoformans H99 serotype A after 72 hrs by microdilution method; assay type: functional, Cryptococcus neoformans var. grubii H99
[25] = Inhibition of Aspergillus fumigatus AGM1
Kluyveromyces marxianus = assay: Antifungal activity against Candida kefyr; assay type: functional
Cryptococcus neoformans [26] = assay: Antifungal activity against Cryptococcus neoformans; assay type: functional
Aspergillus fumigatus [27] = assay: Antifungal activity against Aspergillus fumigatus; assay type: functional
Candida albicans [28] = assay: Antifungal activity against Candida albicans infected in rat model of systemic candidiasis; assay type: functional, organism-based

## COC(=O)C1=C(C)NC(C)=C(C(=O)OC)C1c1ccccc1[N+](=O)[O-]
Candida albicans [1]
  fractional inhibitory concentration index (FICI): 0.017 to 0.035
Candida albicans [2]
  fractional inhibitory concentration index (FICI): 0.017 to 0.035

## CCOC(=O)c1ccccc1S(=O)(=O)NC(=O)Nc1nc(Br)cc(OC)n1
Candida albicans [3]
  MIC90: 0.72 mg/L (≈ 1.57 µM)

## Fc1ccc(C(c2ccc(F)cc2)N2CCN(C/C=C/c3ccccc3)CC2)cc1
Candida albicans [1]
  fractional inhibitory concentration index (FICI): 0.017 to 0.035
Candida albicans [2]
  fractional inhibitory concentration index (FICI): 0.017 to 0.035

## O=C(O)C[C@]1(C(=O)O)OC1C(=O)O (stereo not given in full)
Candida albicans [4]
  MIC: > 512 mg/L

## Cc1c(NS(=O)(=O)c2c(Cl)cc(-c3ccnc(N4CCNCC4)c3)cc2Cl)c(CC(C)C)nn1C [ZELENIRSTAT]
Aspergillus fumigatus [5]
  MIC: 925 µM (≈ 497 µg/mL)
[6]
  IC50: 0.012 µM

## CC[C@@H](C)[C@@H](O)[C@H](C)C(=O)[C@H](C)/C=C(\C)C[C@H](C)C1OC(=O)[C@H]1C (stereo not given in full)
Candida albicans [3]
  MIC: 64 mg/L (≈ 189 µM)

## COc1ccc2cc1Oc1ccc(cc1)C[C@@H]1c3cc(c(OC)cc3CCN1C)Oc1c(OC)c(OC)cc3c1[C@H](C2)N(C)CC3 [ISOTETRANDRINE]
Candida albicans [7]
  MIC80: 64 mg/L (≈ 103 µM)
Candida albicans [8]
  MIC80: 64 mg/L (≈ 103 µM)
Candida albicans [9]
  MIC80: 64 mg/L (≈ 103 µM)
Candida albicans [10]
  MIC80: 64 mg/L (≈ 103 µM)
Candida albicans [11]
  MIC80: 64 mg/L (≈ 103 µM)
Candida albicans [12]
  MIC80: 64 mg/L (≈ 103 µM)
Candida albicans [13]
  MIC80: 64 mg/L (≈ 103 µM)
Candida albicans [14]
  MIC80: 64 mg/L (≈ 103 µM)
Candida albicans [15]
  MIC80: 64 mg/L (≈ 103 µM)
Candida albicans [16]
  MIC80: 64 mg/L (≈ 103 µM)
Candida albicans [17]
  MIC80: 64 mg/L (≈ 103 µM)
Candida albicans [18]
  MIC80: 64 mg/L (≈ 103 µM)
Candida albicans [19]
  MIC80: 64 mg/L (≈ 103 µM)
Candida albicans [20]
  MIC80: 64 mg/L (≈ 103 µM)
Candida albicans [21]
  MIC80: 64 mg/L (≈ 103 µM)
Candida albicans [22]
  MIC80: 64 mg/L (≈ 103 µM)
Candida albicans [23]
  MIC80: 64 mg/L (≈ 103 µM)

## COC(=O)C1=C(C)NC(C)=C(C(=O)OC2CCCN(Cc3ccccc3)C2)C1c1cccc([N+](=O)[O-])c1 (stereo not given)
Candida albicans [1]
  fractional inhibitory concentration index (FICI): 0.017 to 0.035
Candida albicans [2]
  fractional inhibitory concentration index (FICI): 0.017 to 0.035

## C=CC[C@@H]1/C=C(\C)C[C@H](C)C[C@H](OC)[C@H]2O[C@@](O)(C(=O)C(=O)N3CCCC[C@H]3C(=O)O[C@H](/C(C)=C/[C@@H]3CC[C@@H](O)[C@H](OC)C3)[C@H](C)[C@@H](O)CC1=O)[C@H](C)C[C@@H]2OC [TACROLIMUS ANHYDROUS]
Cryptococcus neoformans [24]
  MIC: 0.01 mg/L (≈ 0.0124 µM)

## Cc1nc(/N=N/c2ccc(C(=O)O)cc2)c(COP(=O)(O)O)c(C=O)c1O
[25]
  IC50: 7.1 µM

## N[C@@H](CC(=O)CO)C(=O)O
Kluyveromyces marxianus
  MIC: 6.25 to 12.5 mg/L (≈ 42.5 to 85 µM)

## Cc1c(COc2ccc(F)c(F)c2F)oc2cccc(OCCCNCc3cccnc3)c12
Candida albicans [3]
  MIC: 0.05 mg/L (≈ 0.11 µM)
Cryptococcus neoformans [26]
  MIC90: 3.13 mg/L (≈ 6.86 µM)
Aspergillus fumigatus [27]
  MIC: 25 mg/L (≈ 54.8 µM)
Candida albicans [28]
  EC50: 7.1 mg/kg
